According to patent US20010046504A1, “CYCLOPHOSPHAMIDE FILM-COATED TABLETS” (priority 1998, published 2001):

Type: physicochemical
Procedure: Investigations on the Compatibility of Cyclophosphamide with Various Tableting Auxiliaries […] The pressed tablets were stored at 31° C. for 6 months. The decomposition of the active compound was carried out [sic] by means of chloride determination.

With Preswollen starch [Auxiliary 9] the “Stability of cyclophosphamide in the presence of auxiliary (in words)” value was “somewhat indifferent”.
